These results are taken from patent publication US4473557A, “3"-Deoxystreptomycin production thereof and pharmaceutical compositions containing same” (Zaidan Hojin Biseibutsu Kagaku Kenkyu Kai, priority 1982, dated 1984).

In brackets after ≈: the same amount, converted by molar mass. Like-named read-outs stand apart in the source and are kept apart here. A value given as a limit tells only on which side of the number the result lay.

Data set [1] deals with Bacillus subtilis NRRL B558. The experiment in a line: Minimum inhibitory concentration, serial dilution on nutrient agar. The class given is cell-based. The source says: (§1) Minimum inhibitory concentrations (mcg/ml) of streptomycin and of the parent 3"-deoxydihydrostreptomycin were also estimated in the same manner as above for the comparison purpose and are shown in Table 1 below.

For data set [2], the system named is Escherichia coli C600 R135. Described as above. Conditions: C600R135, 17 h. The class given is cell-based.
Text: as §1

Data set [3] has as its system Escherichia coli JR66/W677. The description is as above. The data set is classed as cell-based. Conditions: 37° C., 17 hours.
Text: as §1

The subject of another data set is Escherichia coli K-12. The data set is described as above. The data set is classed as cell-based.
Text: as §1

Another data set concerns Escherichia coli ML 1629. Described as above. The data set is classed as cell-based.
Text: as §1

In another data set the test system is Escherichia coli W 677. The data set is described as above. The class given is cell-based.
Text: as §1

A further data set relates to Escherichra coli ML 1630. The description is as above. The class given is cell-based. Conditions: 37° C., 17 hours.
Text: as §1

For data set [4], the system named is Mycobacterium smegmatis 607. The data set is described as above. The class given is cell-based.
Text: as §1

Data set [5] relates to Pseudomonas aeruginosa A3. The description is as above. The class given is cell-based.
Text: as §1

Data set [6] concerns Pseudomonas aeruginosa No. 12. The description is as above. The class given is cell-based.
Text: as §1

Another data set concerns Salmonella typhi T-63. The description is as above. The class given is cell-based. Conditions: Salmonella enterica, 17 h.
Text: as §1

A further data set deals with Sarcia lutea 1001. The description is as above. The class given is cell-based. Conditions: 17 h.
Text: as §1

Data set [7] concerns Staphylococcus aureus 209 P. Described as above. The data set is classed as cell-based.
Text: as §1

A further data set deals with resistant bacteria. Conditions: Kokai No. 105154/77; Journal of Antibiotics Vol. 29, 978 (1976); cited from earlier work.
Data set [8] concerns streptomycin-resistant bacteria. The experiment in a line: Activity against streptomycin-resistant bacteria. The class given is cell-based. The conditions noted are these: variety of streptomycin-resistant bacteria.
Text: as §1

The nature of a further data set: in vivo. Conditions: mouse, iv.
The test system of another data set is ICR mice. The data set can be described thus: Acute toxicity by intravenous injection in mice. The conditions noted are these: dosage of 4 mg/kg (so in the source).
Setting [9] is: NRRLB558, Bacillus subtilis NRRL B558, nutrient agar, 37° C., 17 hours, read-out: MIC.
[10] abbreviates: K12, Escherichia coli K-12, nutrient agar, 37° C., 17 hours, read-out: MIC.
Setting [11] is: W677, Escherichia coli W 677, nutrient agar, 37° C., 17 hours, read-out: MIC.
Setting [12] is: Mycolicibacterium smegmatis, Mycobacterium smegmatis 607, nutrient agar, 37° C., 17 hours, read-out: MIC.
[13] abbreviates: Pseudomonas aeruginosa A3, nutrient agar, 37° C., 17 hours, read-out: MIC.
The mark [14] stands for this setting: Pseudomonas aeruginosa No. 12, nutrient agar, 37° C., 17 hours, read-out: MIC.
Where [15] appears, read: Staphylococcus aureus, 209P, 17 h.

Usually MIC stands for the smallest concentration in the dilution series that meets the test's criterion for growth inhibition. Consider `CNC1CC(O)C(CO)OC1OC1C(OC2C(O)C(O)C(NC(=N)N)C(O)C2NC(=N)N)OC(C)C1(O)CO` (stereo not shown) [3"-Deoxydihydrostreptomycin, 3"-deoxydihydrostreptomycin], for which the minimum inhibitory concentration (MIC) in [1] (setting [9]) was found to be 1.56 µg/mL (≈ 2.75 µM); in data set [2], 3.12 µg/mL (≈ 5.5 µM); in data set [3], 12.5 µg/mL (≈ 22 µM); in the data set with Escherichia coli K-12 (setting [10]), 1.56 µg/mL (≈ 2.75 µM); with Escherichia coli ML 1629 (Escherichia coli, ML1629, 17 h) it was 3.12 µg/mL (≈ 5.5 µM); in the data set with Escherichia coli W 677 (setting [11]), 1.56 µg/mL (≈ 2.75 µM). In addition, the MIC against Escherichra coli ML 1630 was 1.56 µg/mL (≈ 2.75 µM); in data set [4] (setting [12]), 0.78 µg/mL (≈ 1.37 µM); in data set [5] (setting [13]) it was 12.5 µg/mL (≈ 22 µM); in data set [6] (setting [14]) it was 25 µg/mL (≈ 44 µM); with Salmonella typhi T-63, 3.12 µg/mL (≈ 5.5 µM); in the data set with Sarcia lutea 1001, 3.12 µg/mL (≈ 5.5 µM). Moreover, in data set [7] (setting [15]), 3.12 µg/mL (≈ 5.5 µM) was the least that counted as inhibitory (MIC). Also, the “activity against the resistant bacteria” value with resistant bacteria is given as “active against the resistant bacteria”.

The term LD50 denotes the dose at which mortality reaches 50%. Low readings indicate a more toxic substance, high ones a less toxic substance. For `CNC1CC(O)C(CO)OC1OC1C(OC2C(O)C(O)C(NC(=N)N)C(O)C2NC(=N)N)OC(C)C1(O)C=O` (stereo not shown) [3"-Deoxystreptomycin, 3"-deoxystreptomycin], the MIC is 1.56 µg/mL (≈ 2.76 µM) in [1] (setting [9]); 3.12 µg/mL (≈ 5.52 µM) in data set [2]; 12.5 µg/mL (≈ 22.1 µM) in data set [3]; 1.56 µg/mL (≈ 2.76 µM) in the data set with Escherichia coli K-12 (setting [10]); 1.56 µg/mL (≈ 2.76 µM) in the data set with Escherichia coli ML 1629 (ML1629, Escherichia coli ML 1629, nutrient agar, 37° C., 17 hours, read-out: MIC.); 1.56 µg/mL (≈ 2.76 µM) with Escherichia coli W 677 (setting [11]). The MIC in the data set on Escherichra coli ML 1630 worked out at 3.12 µg/mL (≈ 5.52 µM); in [4] (setting [12]) it was 0.78 µg/mL (≈ 1.38 µM); in [5] (setting [13]), 6.25 µg/mL (≈ 11.1 µM); in [6] (setting [14]), 25 µg/mL (≈ 44.2 µM); against Salmonella typhi T-63 it was 0.78 µg/mL (≈ 1.38 µM); against Sarcia lutea 1001, 1.56 µg/mL (≈ 2.76 µM). Further, the MIC in data set [7] (Staphylococcus aureus 209 P, nutrient agar, 37° C., 17 hours, read-out: MIC.) was 3.12 µg/mL (≈ 5.52 µM). Also, the “activity against streptomycin-resistant bacteria” value in data set [8] is “active against a variety of streptomycin-resistant bacteria”. This molecule gave an LD50 at 336 h in the data set “in vivo” greater than 200 mg/kg. Besides, the “survival for more than 14 days” value in the data set with ICR mice is given as “all the treated mice survived for more than 14 days”.

With `[H]/N=C(/N)N[C@H]1[C@H](O)[C@@H](O)[C@H](O[C@@H]2O[C@@H](C)[C@](O)(C=O)[C@H]2O[C@@H]2O[C@@H](CO)[C@H](O)[C@@H](O)[C@@H]2NC)[C@@H](N/C(N)=N\[H])[C@@H]1O` [Streptomycin, streptomycin], the MIC in data set [1] (Bacillus subtilis, NRRLB558, 17 h) is 0.78 µg/mL (≈ 1.34 µM); in [2], 50 µg/mL (≈ 86 µM); in data set [3] it was greater than 100 µg/mL; against Escherichia coli K-12 (Escherichia coli, K12, 17 h) it was 1.56 µg/mL (≈ 2.68 µM); against Escherichia coli ML 1629 (Escherichia coli, ML1629, 17 h), 100 µg/mL (≈ 172 µM); with Escherichia coli W 677 (Escherichia coli, W677, 17 h), 1.56 µg/mL (≈ 2.68 µM). Further, the MIC against Escherichra coli ML 1630 was greater than 100 µg/mL; in data set [4] (Mycolicibacterium smegmatis, 607, 17 h), 1.56 µg/mL (≈ 2.68 µM); in data set [5] (Pseudomonas aeruginosa, A3, 17 h), 6.25 µg/mL (≈ 10.7 µM); in data set [6] (Pseudomonas aeruginosa, NO.12, 17 h), 25 µg/mL (≈ 43 µM); with Salmonella typhi T-63, 25 µg/mL (≈ 43 µM); against Sarcia lutea 1001, 1.56 µg/mL (≈ 2.68 µM). In addition, the MIC in data set [7] (setting [15]) was determined as 3.12 µg/mL (≈ 5.36 µM).
